Experimental data published in patent US6184422A, “Cyclohexanediol derivatives” (priority 1998, dated 2001).
pEC50: −log10 of the molar value.

How the values were obtained:
[1] = Calcium Liability (Tolerance Test in Mice); settings: for MTD: mouse, in vivo, sc; for HTD/VDR: ratio HTDsc mouse (μg/kg) / VDR act ED50 (nanomolar)
From the text: 1. Calcium Liability (Tolerance Test in Mice)
This test gives a global picture of calcemic liability. Profound changes in calcium homeostasis strongly affect the weight development of the animals. This parameter was used as a primary test for tolerance. […] Body weight was registered just before and at the end of a 5 day treatment period.

human VDR = biological target: T1, human VDR (Homo sapiens, UniProt P11473); assay: VDR Activation (transcription activation assay in COS cells, luciferase reporter); format: cell-based; settings: COS cells cotransfected with human VDR and VDRE3/luciferase reporter; read-out: VDR act (ED50, nanomolar)
T1 construct: expressed in transfected cells; host or cells: COS cells, expression vector pSG5
T1 sequence (P11473 1-427): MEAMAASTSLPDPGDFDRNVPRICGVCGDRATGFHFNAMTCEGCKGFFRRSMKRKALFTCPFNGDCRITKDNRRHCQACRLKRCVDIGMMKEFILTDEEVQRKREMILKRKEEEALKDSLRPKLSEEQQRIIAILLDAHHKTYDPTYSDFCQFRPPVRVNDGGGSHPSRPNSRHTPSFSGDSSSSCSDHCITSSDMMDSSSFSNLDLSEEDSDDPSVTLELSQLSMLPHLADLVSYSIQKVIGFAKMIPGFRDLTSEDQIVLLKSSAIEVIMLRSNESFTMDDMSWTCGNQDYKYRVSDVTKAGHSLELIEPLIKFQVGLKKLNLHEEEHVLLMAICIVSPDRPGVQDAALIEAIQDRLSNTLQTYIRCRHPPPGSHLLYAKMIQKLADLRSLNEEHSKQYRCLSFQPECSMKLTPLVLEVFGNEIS
From the text: In order to measure the activation of the vitamin D receptor (VDR) by vitamin D analogs in cells a transcription activation assay was used. COS cells were cotransfected with the human VDR (expressed in pSG5) and a reporter gene containing three response elements (VDRE3) from the rat osteocalcine gene, the thymidine kinase basal promoter, and the luciferase reporter gene, respectively.

[2] = system: epidermal proliferation in minipigs; assay: animal or person; settings: for minimal effective dose: Sus scrofa, 168 h, read-out: Effective dose (dose that increases the normal LI at least 50%); for minimal effective dose / Calcemic dose: po; for Calcemic dose: minipig, in vivo, 10080 min; for TI (ratio Calc./Eff.): oral, calcemic dose / effective dose
Experimental: Orally administered vitamin D analogs can lead to epidermal proliferation in minipigs. This skin effect is considered as indicative for an antipsoriatic potential of vitamin D analogs. […] The pigs were daily observed as to adverse effects such as behavior, mobility, stool. At day seven bromodeoxyuridine (4 mg/kg) was injected intravenously into the treated pigs and 2 hours later skin biopsies (6 mm diameter) and blood were taken for analysis. The skin biopsies were fixed in formalin, and paraffin sections were prepared using standard procedures. Using standard immuno-histochemical techniques, cells in the S-phase (DNA synthesis phase) were labelled by the binding of a specific monoclonal antibody against the thymidine analogue bromodeoxyuridine. The number of labelled epidermal cells per unit of length along the surface was taken as a measure of epidermal proliferative activity (labelings index LI). Clinical chemistry was performed using Cobas Mira.
*The effective dose is the dose that increases the normal LI at least 50%

[3] = The Mouse Model: epidermal thickening (acanthosis) in hairless mice; settings: mouse, in vivo, po
[4] = system: epidermal thickening (acanthosis) in hairless mice; assay: as above; settings: for ED50: Mus musculus, po, read-out: ED50: dose causing half-maximal epidermal thickening; for ratio (TI) HTD/ED50: HTDpo/ED50
in vivo = settings: mouse, po

| SMILES | MTD [1] [mg/kg] | HTD/VDR [1] | pEC50 (human VDR) | minimal effective dose [2] [mg/kg] | Calcemic dose [2] [mg/kg] | TI (ratio Calc./Eff.) ([2]; minipigs) | MTD [3] [mg/kg] | ED50 [4] [mg/kg] | ratio (TI) HTD/ED50 ([4]; hairless mice, oral) | MTD (in vivo) [mg/kg] | epidermal hyperproliferation (in words) ([2]; minipigs, even at 9 times the dose that induces hypercalcemia) | skin effects at the highest tolerated dose (in words) ([4]; hairless mice, oral, calcitriol animals treated for three days) |
| --- | --- | --- | --- | --- | --- | --- | --- | --- | --- | --- | --- | --- |
| CC(C)(O)C#CCC(C)(C)CCC/C=C/C=C1C[C@@H](O)C[C@H](O)C1 [K, (10E)-(3R,5R)-12-(3,5-dihydroxy-cyclohexylidene)-6,6-dimethyl-2-methyl-dodec-10-en-3-yn-2-ol] | > 5 | > 23 | 6.66 |  |  |  |  |  |  |  |  |  |
| C=C1/C(=C\C=C\CCCC(C)(C)C/C=C\C(O)(C(F)(F)F)C(F)(F)F)C[C@@H](O)C[C@@H]1O [B, (Z)-(1R,3S)-4-methylene-5-[(2E,9Z)-12,12,12-trifluoro-11-hydroxy-7,7-dimethyl-11-trifluoromethyl-dodeca-2,9-dienylidene]-cyclohexane-1,3-diol] | 3 | 60 | 7.30 | 1 | 2 | 2 | 0.4 | 3 | 0.13 |  |  |  |
| CC(C)(C/C=C/C(O)(C(F)(F)F)C(F)(F)F)CCC/C=C/C=C1C[C@@H](O)C[C@H](O)C1 [D, (1R,3R)-5-[(2E,9E)-12,12,12-trifluoro-11-trifluoromethyl-11-hydroxy-7,7-dimethyl-dodeca-2,9-dienylidene]-cyclohexane-1,3-diol] | 0.1 | 18 | 8.24 |  |  |  | 0.05 | 0.5 | 0.1 |  |  |  |
| C=C1/C(=C\C=C\CCCC(C)(C)CC#CC(O)(C(F)(F)F)C(F)(F)F)C[C@@H](O)C[C@@H]1O [J, (Z)-(1R,3S)-4-methylene-5-[(E)-12,12,12-trifluoro-11-hydroxy-7,7-dimethyl-11-trifluoromethyl-dodec-2-en-9-ynylidene]-cyclohexane-1,3-diol] | 0.31 | 65 | 8.32 | 0.108 | > 0.324 | > 3 | 0.07 | 0.7 | 0.1 |  |  |  |
| C=C1/C(=C\C=C\CCCC(C)(C)CCCC(C)(C)O)C[C@@H](O)C[C@@H]1O [G, (Z)-(1R,3S)-5-[(E)-11-hydroxy-7,7,11-trimethyl-dodec-2-enylidene]-4-methylene-cyclohexane-1,3-diol] | > 5 | 45 | 6.96 |  |  |  |  | 60 | 0.33 | 20 |  |  |
| CC(C)(CCC/C=C/C=C1C[C@@H](O)C[C@H](O)C1)CCCC(O)(C(F)(F)F)C(F)(F)F [Compound E, (1R,3R)-5-[(2E)-12,12,12-trifluoro-11-hydroxy-7,7-dimethyl-11-trifluoromethyl-dodec-2-enylidene)-cyclohexane-1,3-diol] | 0.1 | 15 | 8.18 |  |  |  | 0.04 | 0.2 | 0.2 |  |  |  |
| CC(C)(CC#CC(O)(C(F)(F)F)C(F)(F)F)CCC/C=C/C=C1C[C@@H](O)C[C@H](O)C1 [I, (E)-(1R,3R)-5-[12,12,12-trifluoro-11-hydroxy-7,7-dimethyl-11-trifluoromethyl-dodec-2-en-9-ynylidene]-cyclohexane-1,3-diol] | 0.333 | 26 | 7.89 | 0.036 | 0.2 | 6 | 0.1 | 0.8 | 0.125 |  |  |  |
| C=C1/C(=C\C=C\CCCC(C)(C)C/C=C/C(O)(C(F)(F)F)C(F)(F)F)C[C@@H](O)C[C@@H]1O [C, (Z)-(1R,3S)-5-((2E,9E)-12,12,12-trifluoro-11-trifluoromethyl-11-hydroxy-7,7-dimethyl-dodec-2,9-dienylidene)-4-methylene-cyclohexane-1,3-diol] | 0.2 | 50 | 8.40 |  |  |  | 0.06 | 0.45 | 0.13 |  |  |  |
| CC(C)(O)CCCC(C)(C)CCC/C=C/C=C1C[C@@H](O)C[C@H](O)C1 [H, (2E)-(1R,3R)-5-(11-hydroxy-7,7,11-trimethyl-dodeca-2-enylidene)-cyclohexane-1,3-diol] | > 5 | 18 | 6.55 |  |  |  |  |  |  |  |  |  |
| C=C1/C(=C\C=C\CCCC(C)(C)CCCC(O)(C(F)(F)F)C(F)(F)F)C[C@@H](O)C[C@@H]1O [F, (Z)-(1R,3S)-5-[(2E)-12,12,12-trifluoro-11-hydroxy-7,7-dimethyl-11-trifluoromethyl-dodec-2-enylidene]-4-methylene-cyclohexane-1,3-diol] | 0.08 | 20 | 8.40 | 0.003 | 0.015 | 5 | 0.08 | 0.2 | 0.4 |  |  |  |
| CC(C)(C/C=C\C(O)(C(F)(F)F)C(F)(F)F)CCC/C=C/C=C1C[C@@H](O)C[C@H](O)C1 [A, (1R,3R)-5-[(2E,9Z)-12,12,12-trifluoro-11-hydroxy-7,7-dimethyl-11-trifluoromethyl-dodeca-2,9-dienylidene)-cyclohexane-1,3-diol] | 2.5 | 14 | 6.74 | 0.1 | 5 | 50 | 1 | 7.5 | 0.13 |  |  |  |
| C=C1/C(=C\C=C2/CCC[C@]3(C)[C@@H]([C@H](C)CCCC(C)(C)O)CC[C@@H]23)C[C@@H](O)C[C@@H]1O [Calcitriol, reference compound] |  |  |  | > 0.0225 | 0.003 |  |  | 0.5 |  |  | did not induce hyperproliferation | not able to elicit skin effects |
